From US9512128B2 (BAYER CROPSCIENCE AG, priority 2012, dated 2016) come the findings set out here.

The nature of series [1]: log P by HPLC on reversed-phase columns (C 18), EEC directive 79/831 Annex V.A8. Particulars: for logP[a]: method [a]; for logP[b]: method [b]; for chromatographic logP: reversed-phase C18 HPLC column. In kind it is physicochemical. In a few lines: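 Measured by reversed-phase C18 HPLC (LC-MS) with a linear 10→95% acetonitrile gradient. Acidic: pH 2.7, 0.1% formic acid. Neutral: pH 7.8, 0.001 M ammonium bicarbonate.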

Series [2] concerns cattle ticks (Boophilus microplus). Nature of the series: Boophilus microplus injection test (BOOPMI Inj). In kind it is in vivo. Particulars: 20 μg/animal, injection into the abdomen, assessed after 7 days. On the procedure: 6. Boophilus microplus Injection Test (BOOPMI Inj)
• Solvent: dimethyl sulphoxide
To produce a suitable preparation of active compound, 10 mg of active compound are mixed with 0.5 ml of solvent, and the concentrate is diluted with solvent to the desired concentration.
1 μl of the active compound solution is injected into the abdomen of 5 fed adult female cattle ticks (Boophilus microplus). The animals are transferred into dishes and kept in a climate-controlled room.
The activity is assessed after 7 days by laying of fertile eggs. Eggs whose fertility is not visible from the outside are stored in a climate-controlled cabinet until the larvae hatch after about 42 days. An efficacy of 100% means that none of the ticks has laid any fertile eggs; 0% means that all eggs are fertile.

Series [3] has as its system greenhouse red spider mite (Tetranychus urticae). Briefly: Tetranychus urticae spray test, OP-resistant (TETRUR). Particulars: application rate 500 g/ha, after 6 days, bean leaf discs. In kind it is in vivo. In a few lines:
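Bean leaf discs infested with all stages of an OP-resistant strain are sprayed with compound in acetone/DMF with alkylaryl polyglycol ether emulsifier, diluted in water; % mortality after 6 days (100% = all mites killed).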

The test system of series [4] is caterpillars of the armyworm (Spodoptera frugiperda). Briefly: Spodoptera frugiperda spray test (SPODFR). In kind it is in vivo. Conditions: application rate 500 g/ha, after 7 days, maize leaf discs. On the procedure: 3. Spodoptera frugiperda Spray Test (SPODFR)
(§1) • Solvents: 78.0 parts by weight of acetone • 1.5 part by weight of dimethylformamide • Emulsifier: 0.5 part by weight of alkylaryl polyglycol ether
(§2) To produce a suitable preparation of active compound, 1 part by weight of active compound is mixed with the stated amounts of solvents and emulsifier, and the concentrate is diluted with emulsifier-containing water to the desired concentration.
Leaf discs of maize (Zea mays) are sprayed with an active compound preparation of the desired concentration and, after drying, populated with caterpillars of the armyworm (Spodoptera frugiperda).
After 7 days, the efficacy in % is determined. 100% means that all of the caterpillars have been killed; 0% means that none of the caterpillars have been killed.

The subject of series [5] is larvae of the mustard beetle (Phaedon cochleariae). Briefly: Phaedon cochleariae spray test (PHAECO). The class given is in vivo. Conditions: application rate 500 g/ha, after 7 days, Chinese cabbage leaf discs. On the procedure: 2. Phaedon cochleariae Spray Test (PHAECO)
as §1, §2
After 7 days, the efficacy in % is determined. 100% means that all of the beetle larvae have been killed; 0% means that none of the beetle larvae have been killed.

Series [6] relates to southern root-knot nematode (Meloidogyne incognita). Nature of the series: Meloidogyne incognita test (MELGIN). The class given is in vivo. Particulars: application rate 20 ppm, after 14 days, lettuce. An outline of the steps: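 Compound in acetone diluted with water, added to sand with M. incognita egg/larvae suspension and lettuce seeds. Root galls assessed after 14 days; effect in % where 100% means no galls and 0% equals untreated control.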

Series [7] concerns green peach aphid (Myzus persicae). Nature of the series: Myzus persicae spray test (MYZUPE). In kind it is in vivo. Conditions: application rate 500 g/ha, after 6 days, Chinese cabbage leaf discs. As for the experimental part:
1. Myzus persicae Spray Test (MYZUPE)
• Solvents: 78 parts by weight of acetone • 1.5 part by weight of dimethylformamide • Emulsifier: 0.5 part by weight of alkylaryl polyglycol ether
as §2
Discs of Chinese cabbage leaves (Brassica pekinensis) infested by all stages of the green peach aphid (Myzus persicae) are sprayed with an active compound preparation of the desired concentration.
After 6 days, the efficacy in % is determined. 100% here means that all of the aphids have been killed; 0% means that no aphids have been killed.

The mark [8] stands for this setting: pH 2.7, acidic range, pH 2.7, 0.1% aqueous formic acid / acetonitrile, read-out: log P[a].
[9] abbreviates: pH 2.7, method [a], read-out: logP[a].
The mark [10] stands for this setting: pH 7.8, method [b], read-out: logP[b].
Setting [11] is: pH 7.8, neutral range, pH 7.8, 0.001 molar aqueous ammonium bicarbonate / acetonitrile, read-out: log P[b].

Like-named read-outs stand apart in the source and are kept apart here.

With `Cc1ccc(-n2cnc3c(cnn3C)c2=O)cc1[S+]([O-])CC(F)(F)F` (racemic) [Compound 27], in series [1], the “logP[a]” value is recorded as 1.57 and the “logP[b]” value amounted to 1.57. Also, the “efficacy in % (laying of fertile eggs)” value in series [2] is 100%. The “efficacy in % (spider mites killed)” value in series [3] came to 90%.
For `Cc1ccc(-n2cnc3c(c(C)nn3C)c2=O)cc1[S+]([O-])CC(F)(F)F` (racemic) [Compound 33], in series [1], the “logP[a]” value was 1.79 and the “logP[b]” value was 1.75. In series [3], the “efficacy in % (spider mites killed)” value was determined as 90%. The “efficacy in % (caterpillars killed)” value in series [4] turned out to be 100%. In addition, the “efficacy in % (beetle larvae killed)” value in series [5] was determined as 100%.
Regarding `Cc1cc(F)c(-n2cnc3c(cnn3C)c2=O)cc1[S+]([O-])CC(F)(F)F` (centres unmarked) [Compound 2, 5-{2-Fluoro-4-methyl-5-[(2,2,2-trifluoroethyl)sulphinyl]phenyl}-1-methyl-1,5-dihydro-4H-pyrazolo[3,4-d]pyrimidin-4-one], the chromatographic logP in series [1] (setting [8]) was 1.73; in series [1] (setting [9]), 1.73; in series [1] (setting [10]), 1.69; in series [1] (setting [11]), 1.69. Besides, in series [2], the “efficacy in % (laying of fertile eggs)” value worked out at 100%. For the same compound, the “efficacy in % (spider mites killed)” value in series [3] is 100%. For the same compound, in series [5], the “efficacy in % (beetle larvae killed)” value is reported as 100%.
Consider `Cc1cc(F)c(-n2c(C)nc3c(cnn3C)c2=O)cc1[S+]([O-])CC(F)(F)F` (centres unmarked) [Compound 15, 5-{2-Fluoro-4-methyl-5-[(2,2,2-trifluoroethyl)sulphinyl]phenyl}-1,6-dimethyl-1,5-dihydro-4H-pyrazolo[3,4-d]pyrimidin-4-one], for which the “nematicidal effect in % (formation of galls)” value (“nematicidal effect in %” below) in series [6] was found to be 90%. For the same compound, the chromatographic logP worked out at 1.85 in series [1] (setting [8]), 1.85 in series [1] (setting [9]), 1.84 in series [1] (setting [10]) and 1.84 in series [1] (setting [11]). In series [2], the “efficacy in % (laying of fertile eggs)” value is reported as 100%. For the same compound, the “efficacy in % (spider mites killed)” value in series [3] is 90%.
Consider `Cc1nn(C)c2ncn(-c3ccc(Cl)c(SCC(F)(F)F)c3)c(=O)c12` [Compound 36], for which, in series [1], the “logP[a]” value was 2.82 and the “logP[b]” value is 2.79. In series [4], the “efficacy in % (caterpillars killed)” value was found to be 83%. Moreover, the “efficacy in % (beetle larvae killed)” value in series [5] is listed as 100%.
Regarding `Cc1cc(F)c(-n2cnc3cnn(C)c3c2=O)cc1[S+]([O-])CC(F)(F)F` (centres unmarked) [Compound 40], the “nematicidal effect in %” value in series [6] is given as 100%. Also, in series [1], the “logP[a]” value was 1.82 and the “logP[b]” value stood at 1.81. In series [2], the “efficacy in % (laying of fertile eggs)” value was found to be 100%. Also, the “efficacy in % (spider mites killed)” value in series [3] turned out to be 90%.
Turning to `Cc1cc(F)c(-n2c(C)nc3cnn(C)c3c2=O)cc1[S+]([O-])CC(F)(F)F` (centres unmarked) [Compound 41], in series [6], the “nematicidal effect in %” value was found to be 90%. For the same compound, in series [1], the “logP[a]” value is 1.90 and the “logP[b]” value was 1.88. For the same compound, the “efficacy in % (laying of fertile eggs)” value in series [2] came to 100%. For the same compound, in series [3], the “efficacy in % (spider mites killed)” value was 100%.
For the compound `Cc1c2c(=O)n(-c3ccc(C(F)(F)F)c([S+]([O-])CC(F)(F)F)c3)cnc2nn1C` (centres unmarked) [Compound 46], the “nematicidal effect in %” value in series [6] is given as 90%. Besides, in series [1], the “logP[a]” value was found to be 2.11 and the “logP[b]” value is given as 2.07. For the same compound, in series [4], the “efficacy in % (caterpillars killed)” value is on record as 100%. Further, in series [5], the “efficacy in % (beetle larvae killed)” value is listed as 100%.
As for `CCn1cnc2c(=O)n(-c3cc(SCC(F)(F)F)c(C)cc3F)cnc21` [Compound 53], the “nematicidal effect in %” value in series [6] is reported as 100%. Further, in series [1], the “logP[a]” value amounted to 2.46 and the “logP[b]” value is listed as 2.41. Also, the “efficacy in % (aphids killed)” value in series [7] was 90%. The “efficacy in % (spider mites killed)” value in series [3] is 90%.
With `Cc1cc(F)c(-n2cnc3scnc3c2=O)cc1[S+]([O-])CC(F)(F)F` (centres unmarked) [Compound 61], the “nematicidal effect in %” value in series [6] came to 90%. Also, in series [1], the “logP[a]” value is 1.57 and the “logP[b]” value turned out to be 1.56. The “efficacy in % (laying of fertile eggs)” value in series [2] is 100%. Also, the “efficacy in % (spider mites killed)” value in series [3] was 90%. The “efficacy in % (beetle larvae killed)” value in series [5] is 100%.
As for `Cc1nc2c(=O)n(-c3cc([S+]([O-])CC(F)(F)F)c(C)cc3F)cnc2s1` (centres unmarked) [Compound 73], the “nematicidal effect in %” value in series [6] is recorded as 90%. In addition, in series [1], the “logP[a]” value is listed as 1.80 and the “logP[b]” value was 1.77. Further, in series [2], the “efficacy in % (laying of fertile eggs)” value is recorded as 100%. The “efficacy in % (spider mites killed)” value in series [3] was 100%.
As for `Cc1cc(F)c(-n2cnc3ncsc3c2=O)cc1[S+]([O-])CC(F)(F)F` (centres unmarked) [Compound 79], the “nematicidal effect in %” value in series [6] came out at 90%. Moreover, in series [1], the “logP[a]” value was 1.60 and the “logP[b]” value was 1.57. Besides, in series [2], the “efficacy in % (laying of fertile eggs)” value is given as 100%. Besides, the “efficacy in % (spider mites killed)” value in series [3] worked out at 100%.
For `COc1ccc(-n2cnc3sccc3c2=O)cc1[S+]([O-])CC(F)(F)F` (centres unmarked) [Compound 89], the “nematicidal effect in %” value in series [6] came out at 90%. In addition, in series [1], the “logP[a]” value is 1.91 and the “logP[b]” value is on record as 1.91. Further, in series [2], the “efficacy in % (laying of fertile eggs)” value is 100%. In addition, in series [5], the “efficacy in % (beetle larvae killed)” value worked out at 100%.
Take `CCn1ncc2c(=O)n(-c3cc(SCC(F)(F)F)c(C)cc3F)c(C)nc21` [Compound 125]: in series [7], the “efficacy in % (aphids killed)” value is 100%. In addition, in series [3], the “efficacy in % (spider mites killed)” value was 100%.
As for `Cc1cc(F)c(-n2cnc3c(C)nn(C)c3c2=O)cc1[S+]([O-])CC(F)(F)F` (centres unmarked) [Compound 129], the “nematicidal effect in %” value in series [6] is 90%. For the same compound, the “efficacy in % (laying of fertile eggs)” value in series [2] turned out to be 100%. Besides, the “efficacy in % (spider mites killed)” value in series [3] came to 90%.
For `Cc1cc(C)c([S+]([O-])CC(F)(F)F)cc1-n1cnc2cnn(C)c2c1=O` (centres unmarked) [Compound 134], the “nematicidal effect in %” value in series [6] came out at 100%. In addition, the “efficacy in % (laying of fertile eggs)” value in series [2] is reported as 100%. Besides, in series [3], the “efficacy in % (spider mites killed)” value came out at 100%.
Turning to `Cc1cc(F)c(-n2cnc3nn(C)c(C)c3c2=O)cc1[S+]([O-])CC(F)(F)F` (centres unmarked) [Compound 172], the “efficacy in % (laying of fertile eggs)” value in series [2] was found to be 100%. Further, in series [7], the “efficacy in % (aphids killed)” value amounted to 90%. Further, the “efficacy in % (spider mites killed)” value in series [3] was 90%.
On to `Cc1cc(F)c(-n2c(C)nc3nn(C)cc3c2=O)cc1[S+]([O-])CC(F)(F)F` (centres unmarked) [Compound 175], for which the “efficacy in % (aphids killed)” value in series [7] came out at 100%. In addition, the “efficacy in % (spider mites killed)” value in series [3] came out at 100%.
With `Cc1cc(F)c(-n2cnc3snc(C)c3c2=O)cc1[S+]([O-])CC(F)(F)F` (centres unmarked) [Compound 204], the “nematicidal effect in %” value in series [6] worked out at 100%. In series [2], the “efficacy in % (laying of fertile eggs)” value worked out at 100%. In addition, the “efficacy in % (spider mites killed)” value in series [3] is 90%. Also, in series [5], the “efficacy in % (beetle larvae killed)” value worked out at 83%.
For `Cc1cc(F)c(-n2nnc3snc(C)c3c2=O)cc1SCC(F)(F)F` [Compound 205], the “efficacy in % (spider mites killed)” value in series [3] stood at 100%. Further, in series [4], the “efficacy in % (caterpillars killed)” value stood at 100%. For the same compound, in series [5], the “efficacy in % (beetle larvae killed)” value was 100%.
Consider `Cc1cc(F)c(-n2nnc3snc(C)c3c2=O)cc1[S+]([O-])CC(F)(F)F` (centres unmarked) [Compound 206], for which the “nematicidal effect in %” value in series [6] stood at 100%. Besides, the “efficacy in % (spider mites killed)” value in series [3] is reported as 100%. The “efficacy in % (caterpillars killed)” value in series [4] is reported as 100%. The “efficacy in % (beetle larvae killed)” value in series [5] was found to be 100%.
